Laboratory results from publication PMC11184554, “Nature-Inspired Gallinamides Are Potent Antischistosomal Agents: Inhibition of the Cathepsin B1 Protease Target and Binding Mode Analysis” (ACS Infectious Diseases, 2024).

Legend:
[1] = system: recombinant SmCB1; test: Kinetic inhibition assay with recombinant SmCB1 (k2nd); type: biochemical, S. mansoni
Protocol: Gallinamide A and a series of its 18 derivatives were evaluated in vitro as inhibitors of SmCB1 to explore the binding specificities of the subsites in the enzyme’s active site. The gallinamide A inhibitor scaffold can be defined by positions P4 through P1′ (Schechter and Berger nomenclature[37]), which were assigned according to the binding mode analysis (see the crystallographic section below). The substituents R4, R1, and R1′ introduced on the scaffold (Table 2) are numbered according to the respective positions P4, P1, and P1′. The compounds’ second-order rate constants (k2nd) were determined using a kinetic inhibition assay with recombinant SmCB1 and the substrate, Cbz–Phe–Arg–AMC.
Inhibition measurements were performed in duplicate in 96-well microplates (100 μL assay volume) at 37 °C. SmCB1 (40 pM) was added to a mixture of the fluorogenic substrate Cbz–Phe–Arg–AMC (25 μM) and an inhibitor (0–100 μM) in 0.1 M sodium acetate, pH 5.5, containing 2.5 mM dithiothreitol and 0.01% (w/v) BRIJ 35. Substrate hydrolysis was monitored in an Infinite M1000 microplate reader (Tecan) at excitation and emission wavelengths of 360 and 465 nm, respectively, for up to 150 min. An observed first-order rate constant, kobs, was calculated at each inhibitor concentration by fitting the progress curve to the equation P = vi/kobs(1 – exp(−kobst)) + d where P is the product formation, t is the reaction time, vi is the initial velocity, and d is the offset. […] The second-order rate constant, k2nd, (and SE value) was determined by fitting the linear equation kobs = (k2nd[I])/(1 + [S]/Km), where [S] is the substrate concentration, [I] is the inhibitor concentration, and KM is the Michaelis–Menten constant. The KM value determined for SmCB1 was 25 μM. […] To determine IC50 values, SmCB1 (40 pM) was preincubated with the inhibitor (0–100 μM) for 30 min under assay conditions as described above, followed by the addition of the fluorogenic substrate Cbz–Phe–Arg–AMC (20 μM). Substrate hydrolysis was monitored for 30 min in a microplate reader as described above. The IC50 values were determined by nonlinear regression using GraFit software (Erithacus Software).

[2] = system: S. mansoni newly transformed schistosomula (NTS); test: Phenotypic screen with newly transformed schistosomula (NTS); type: cell-based
Protocol: The same 19 gallinamides were screened for bioactivity against S. mansoni newly transformed schistosomula (NTS), the postinvasive parasite stage that feeds on host blood.[40] In this primary assay, the NTS were exposed to 1 and 10 μM compounds for 3 days, and the resulting phenotypic responses were graded from 0 through 4, i.e., the least to the most severe (Table 2 and Table S1). […] The effects were more pronounced after 72 h, and when the higher, 10 μM, compound concentration was used (Table S1). […] Also, compared to gallinamide A and its analogs, 3 has an additional N-terminal N-acetamide modification that further reduces bioactivity (Table 2).
Phenotypic screens employed S. mansoni newly transformed schistosomula (NTS) and adults and were carried out as described previously.[18]−[20],[42] NTS were prepared by mechanically transforming infective larvae (cercariae).[40],[42] NTS (200–300 parasites) were incubated in flat-bottomed 96-well plates in 200 μL of Basch Medium 169 containing 5% (v/v) FBS, 100 U mL^–1 penicillin and 100 μg mL^–1 streptomycin (complete Basch medium)[75] at 5% CO2 and 37 °C.[76],[77] Inhibitors were added at final concentrations of 1 and 10 μM, and changes in phenotypes were observed under an inverted microscope every 24 h for up to 72 h.
A constrained nomenclature of “descriptors”[39],[42] was used to record the multiple and dynamic changes in movement, shape, and translucence that the schistosome parasite is capable of (Table S1 for NTS and Table S3 for adults). These descriptors were then converted into an ordinal “severity score” system ranging from 0 (no effect) to 4 (maximum effect), which allows for the relative comparison of compound effects.

Compound: CCC(C)C(C(=O)OC(CC(C)C)C(=O)NC(CC(C)C)C(=O)NC(C=CC(=O)N1C(=O)C=C(OC)C1Cc1ccccc1)Cc1ccccc1)N(C)C (centres unmarked) [compound 14]
- decrease in inhibition potency vs 8 ([1]; ratio of k2nd values, range over the compounds named): 4.2–49 fold
- SmCB1 inhibition k2nd ([1]; second-order rate constant (kinact/Ki), substrate Cbz–Phe–Arg–AMC, pH 5.5, 37 °C, mean ± SE): 54.5 ± 1.3 M^–1·s^–1
- schistosomula severity score ([2]; 1 μM compound, 24 h, scale 0 (no effect) to 4 (most severe)): 0
- schistosomula severity score ([2]; 1 μM compound, 48 h, scale 0 to 4): 3
- schistosomula severity score ([2]; 1 μM compound, 72 h, scale 0 to 4): 4
- schistosomula severity score ([2]; 10 µM compound, 24 h, scale 0 to 4): 1
- schistosomula severity score ([2]; 10 µM compound, 48 h, scale 0 to 4): 4
- schistosomula severity score ([2]; 10 µM compound, 72 h, scale 0 to 4): 4
